Results: US12077503B2, “Substituted cyclic amides and their use as herbicides” (FMC CORPORATION, priority 2015, dated 2024)

Tests used:
Format in all cases: in vivo
Kochia (Kochia scoparia) [1] = assay: Test A preemergence; details: preemergence
How it was run: (§1)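 Compounds were formulated in a non-phytotoxic solvent mixture with surfactant and applied as a preemergence directed soil spray after seeding, or sprayed postemergence over plants 2 to 10 cm tall at the one- to two-leaf stage. Evaluation after about 10 d compared treated with untreated controls, using a scale from 0 (no effect) to 100 (complete control).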

[2] = system: barnyardgrass (Echinochloa crus-galli); assay: Test A preemergence; details: preemergence
How it was run: as §1

[3] = system: giant foxtail (Setaria faberii); assay: Test A preemergence; details: preemergence
How it was run: as §1

[4] = system: pigweed (Amaranthus retroflexus); assay: Test A preemergence; details: preemergence
[5] = system: ragweed (common ragweed, Ambrosia elatior); assay: Test A preemergence; details: preemergence
How it was run: as §1

[6] = system: ryegrass, Italian (Italian ryegrass, Lolium multiflorum); assay: Test A preemergence; details: preemergence
How it was run: as §1

[7] = system: Galium (catchweed bedstraw, Galium aparine); assay: Test A postemergence; details: postemergence, 0 to 100 scale (0 no effect, 100 complete control)
How it was run: as §1

Kochia (Kochia scoparia) [8] = assay: Test A postemergence; details: postemergence, 0 to 100 scale (0 no effect, 100 complete control)
How it was run: as §1

[9] = system: barnyardgrass (Echinochloa crus-galli); assay: Test A postemergence; details: postemergence, 0 to 100 scale (0 no effect, 100 complete control)
How it was run: as §1

[10] = system: blackgrass (Alopecurus myosuroides); assay: Test A postemergence; details: postemergence, 0 to 100 scale (0 no effect, 100 complete control)
How it was run: as §1

corn (Zea mays) = assay: Test A postemergence; details: postemergence, 0 to 100 scale (0 no effect, 100 complete control)
How it was run: as §1

[11] = system: giant foxtail (Setaria faberii); assay: Test A postemergence; details: postemergence, 0 to 100 scale (0 no effect, 100 complete control)
How it was run: as §1

[12] = system: pigweed (Amaranthus retroflexus); assay: Test A postemergence; details: postemergence, 0 to 100 scale (0 no effect, 100 complete control)
How it was run: as §1

[13] = system: ragweed (common ragweed, Ambrosia elatior); assay: Test A postemergence; details: postemergence, 0 to 100 scale (0 no effect, 100 complete control)
How it was run: as §1

[14] = system: ryegrass, Italian (Italian ryegrass, Lolium multiflorum); assay: Test A postemergence; details: postemergence, 0 to 100 scale (0 no effect, 100 complete control)
How it was run: as §1

[15] = system: wheat (Triticum aestivum); assay: Test A postemergence; details: postemergence, 0 to 100 scale (0 no effect, 100 complete control)
How it was run: as §1

[16] = system: barnyardgrass (Echinochloa crus-galli); assay: Test B flooded paddy test; details: Flood, 500 g ai/ha; 0 to 100 scale where 0 is no effect and 100 is complete control; 13 to 15 d
How it was run: (§2)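 Evaluation by eye, against controls, occurred 13–15 d post-treatment in a greenhouse, using a 0 (no effect) to 100 (complete control) scale. Application was into the paddy water, 3 cm deep over the soil, on 2-leaf plants.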

[17] = system: ducksalad (Heteranthera limosa); assay: Test B flooded paddy test; details: Flood, 500 g ai/ha; 0 to 100 scale where 0 is no effect and 100 is complete control; 13 to 15 d
How it was run: as §2

rice (Oryra sativa) = assay: Test B flooded paddy test; details: Flood, 500 g ai/ha; 0 to 100 scale where 0 is no effect and 100 is complete control; 13 to 15 d
How it was run: as §2

[18] = system: sedge, umbrella (small-flower umbrella sedge, Cyperus difformis); assay: Test B flooded paddy test; details: Flood, 500 g ai/ha; 0 to 100 scale where 0 is no effect and 100 is complete control; 13 to 15 d
How it was run: as §2

[19] = system: pigweed (Amaranthus retroflexus); assay: Test C preemergence; details: for Plant response rating (scale of 0 to 100), Pigweed: 31 g ai/ha, 0 is no effect, 100 is complete control; for Plant response rating, Pigweed: scale 0 to 100, 0 no effect, 100 complete control
Text: Seeds of plant species selected from blackgrass (Alopecurus myosuroides), ryegrass, Italian (Italian ryegrass, Lolium multiflorum), wheat (winter wheat, Triticum aestivum), Galium (catchweed bedstraw, Galium aparine), corn (Zea mays), crabgrass, large (large crabgrass, Digitaria sanguinalis), foxtail, giant (giant foxtail, Setaria faberii), johnsongrass (Sorghum halepense), lambsquarters (Chenopodium album), morningglory (Ipomoea coccinea), nutsedge, yellow (yellow nutsedge, Cyperus esculentus), pigweed (Amaranthus retroflexus), ragweed (common ragweed, Ambrosia elatior), soybean (Glycine max), barnyardgrass (Echinochloa crus-galli), oilseed rape (Brassica napus), waterhemp (common waterhemp, Amaranthus rudis) and velvetleaf (Abutilon theophrasti) were planted into a blend of loam soil and sand and treated preemergence with test chemicals formulated in a non-phytotoxic solvent mixture which included a surfactant.
At the same time, plants selected from these crop and weed species and also Kochia (Kochia scoparia), oat, wild (wild oat, Avena fatua), and chickweed (common chickweed, Stellaria media) were planted in pots containing Sunshine Redi-Earth® planting medium comprising spaghnum peat moss, vermiculite, starter nutrients and dolomitic limestone and treated with postemergence applications of test chemicals formulated in the same manner. Plants ranged in height from 2 to 18 cm (1- to 4-leaf stage) for postemergence treatments. Treated plants and controls were maintained in a greenhouse for 13 to 15 d, after which time all species were compared to controls and visually evaluated. Plant response ratings, summarized in Table C, are based on a scale of 0 to 100 where 0 is no effect and 100 is complete control. A dash (-) response means no test result.

[20] = 125 g ai/ha, visual rating after approx. 10 d, 0 to 100 scale where 0 is no effect and 100 is complete control
[21] = 500 g ai/ha, 0 to 100 scale, 0 = no effect, 100 = complete control
[22] = 125 g ai/ha, visual injury after approximately 10 d
[23] = 500 g ai/ha, visual injury, approx. 10 d

Row | Compound | Plant response rating, Kochia (Kochia (Kochia scoparia) [1]; [20]) | Plant response rating, Kochia (Kochia (Kochia scoparia) [1]; [21]) | Plant response rating, Barnyardgrass [2, 20] | Plant response rating, Barnyardgrass [2, 21] | Plant response rating, Foxtail, Giant [3, 20] | Plant response rating, Foxtail, Giant [3, 21] | Plant response rating, Pigweed [4, 20] | Plant response rating, Pigweed [4, 21] | Plant response rating, Ragweed [5, 20] | Plant response rating, Ragweed [5, 21] | Plant response rating, Ryegrass, Italian [6, 20] | Plant response rating, Ryegrass, Italian [6, 21] | Plant response rating, Galium [7, 22] | Plant response rating, Galium [7, 23] | Plant response rating, Kochia (Kochia (Kochia scoparia) [8]; [22]) | Plant response rating, Kochia (Kochia (Kochia scoparia) [8]; [23]) | Plant response rating, Barnyardgrass [9, 22] | Plant response rating, Barnyardgrass [9, 23] | Plant response rating, Blackgrass [10, 22] | Plant response rating, Blackgrass [10, 23] | also measured
1 | O=C1NCC(c2cccc(OC(F)(F)C(F)F)c2)C1C(=O)Nc1cccc(F)c1F (racemic) [Compound 697] | 30 | 80 | 90 | 90 | 90 | 90 | 50 | 50 | 50 | 60 | 40 | 50 | 50 | 50 | 60 | 60 | 80 | 90 | 30 | 40 | Plant response rating, Corn (corn (Zea mays); [22]): 70; Plant response rating, Corn (corn (Zea mays); [23]): 80; Plant response rating, Foxtail, Giant [11, 22]: 80; Plant response rating, Foxtail, Giant [11, 23]: 80; Plant response rating, Pigweed [12, 22]: 50; Plant response rating, Pigweed [12, 23]: 50; Plant response rating, Ragweed [13, 22]: 30; Plant response rating, Ragweed [13, 23]: 50; Plant response rating, Ryegrass, Italian [14, 22]: 20; Plant response rating, Ryegrass, Italian [14, 23]: 30; Plant response rating, Wheat [15, 22]: 20; Plant response rating, Wheat [15, 23]: 40; Plant response rating, Barnyardgrass [16]: 90; Plant response rating, Ducksalad [17]: 90; Plant response rating, Rice (rice (Oryra sativa)): 0; Plant response rating, Sedge, Umbrella [18]: 0; Plant response rating (scale of 0 to 100), Pigweed [19]: 75; Plant response rating, Pigweed ([19]; 62 g ai/ha): 80; Plant response rating, Pigweed ([19]; 125 g ai/ha): 85; Plant response rating, Pigweed ([19]; 250 g ai/ha): 85
2 | O=C1NCC(c2cccc(OC(F)(F)C(F)F)c2)C1C(=O)Nc1ccc(F)c(F)c1F (racemic) [Compound 698] | 50 | 40 | 80 | 90 | 90 | 90 | 50 | 50 | 0 | 50 | 30 | 60 | 50 | 50 | 50 | 60 | 70 | 80 | 30 | 40 | Plant response rating, Corn (corn (Zea mays); [22]): 80; Plant response rating, Corn (corn (Zea mays); [23]): 80; Plant response rating, Foxtail, Giant [11, 22]: 80; Plant response rating, Foxtail, Giant [11, 23]: 80; Plant response rating, Pigweed [12, 22]: 40; Plant response rating, Pigweed [12, 23]: 60; Plant response rating, Ragweed [13, 22]: 20; Plant response rating, Ragweed [13, 23]: 40; Plant response rating, Ryegrass, Italian [14, 22]: 30; Plant response rating, Ryegrass, Italian [14, 23]: 30; Plant response rating, Wheat [15, 22]: 30; Plant response rating, Wheat [15, 23]: 40; Plant response rating, Barnyardgrass [16]: 50; Plant response rating, Ducksalad [17]: 90; Plant response rating, Rice (rice (Oryra sativa)): 0; Plant response rating, Sedge, Umbrella [18]: 0; Plant response rating (scale of 0 to 100), Pigweed [19]: 75; Plant response rating, Pigweed ([19]; 62 g ai/ha): 85; Plant response rating, Pigweed ([19]; 125 g ai/ha): 90; Plant response rating, Pigweed ([19]; 250 g ai/ha): 90
3 | O=C1NCC(c2ccc(I)cc2)C1C(=O)Nc1cccc(F)c1F (racemic) [Compound 700] | 30 | 70 | 90 | 90 | 90 | 90 | 40 | 60 | 0 | 60 | 0 | 30 | 40 | 60 | 30 | 60 | 70 | 70 | 0 | 50 | Plant response rating, Corn (corn (Zea mays); [22]): 0; Plant response rating, Corn (corn (Zea mays); [23]): 70; Plant response rating, Foxtail, Giant [11, 22]: 70; Plant response rating, Foxtail, Giant [11, 23]: 90; Plant response rating, Pigweed [12, 22]: 0; Plant response rating, Pigweed [12, 23]: 30; Plant response rating, Ragweed [13, 22]: 20; Plant response rating, Ragweed [13, 23]: 30; Plant response rating, Ryegrass, Italian [14, 22]: 30; Plant response rating, Ryegrass, Italian [14, 23]: 40; Plant response rating, Wheat [15, 22]: 0; Plant response rating, Wheat [15, 23]: 60; Plant response rating, Barnyardgrass [16]: 85; Plant response rating, Ducksalad [17]: 100; Plant response rating, Rice (rice (Oryra sativa)): 0; Plant response rating, Sedge, Umbrella [18]: 0; Plant response rating (scale of 0 to 100), Pigweed [19]: 0; Plant response rating, Pigweed ([19]; 62 g ai/ha): 15; Plant response rating, Pigweed ([19]; 125 g ai/ha): 50; Plant response rating, Pigweed ([19]; 250 g ai/ha): 65
